These results are taken from US4454145A, “Nicotinates of alkanediols having hypolipidaemic activity and pharmaceutical compositions containing them” (Alfa Farmaceutici S.p.A., priority 1981, dated 1984).

What all share (assay type): in vivo, Male Wistar rats
Assay [1] has as its system hypertriglyceridemia caused by fructose. Nature of the assay: Test A: decrease of triglycerides content in the serum of rats due to hypertriglyceridemia caused by fructose. As to conditions: for change in vivo at 50 mg/kg: Rattus norvegicus, po, 72 h, read-out: ΔTGhematic (percent decrease of the hematic triglycerides); for change in vivo at 50 mg/kg / ΔTGhematic (percent decrease of the hematic triglycerides): 50 mg/Kg/os/die, three days, fructose diet; for ED50, Test diet of fructose: Table 3, oral. The source says: (A) Determination of the decrease of triglycerides content in the serum of rats due to hypertriglyceridemia caused by fructose.
Male Wistar rats weighing 260±20 g, normally fed, subdivided in groups of 6 animals each, are used. The test lasts three days: in the first day the animals are normally fed but are kept without drinking water; in the second and third day they receive a 20% (w/v) water solution of fructose instead of water; moreover in the second day they are fed by means of a gastric probe with further 4 ml of 50% (w/v) aqueous solution of fructose. […] The animals are sacrificed undr ethereal anaesthesia 4 hours after the treatment of the third day and the blood is drawn by an intracardiacal injection.
The percent decrease of the hematic triglycerides due to the treatment with the compound to be tested is expressed as ΔTGhematic and is represented by the following formula: [formula] TG=triglycerides.

Assay [2] deals with total cholesterol in rats fed with hypercholesterolemic diet. Nature of the assay: Test B: variation of total cholesterol in rats fed with Tensho et al. hypercholesterolemic diet. As to conditions: Table 3, oral. The text has this: (B) Determination of the variation of total cholesterol in rats fed with Greenberg […] diet modified according to Tensho et al.
The rats are subdivided in 3 experimental groups:
(1) control group, normally fed;
(2) diet group, fed only with the Tensho diet;
(3) treated group, fed with the Tensho diet and treated with the compounds to be tested.
At the beginning of the eighth day the rats, fasted since the previous evenging, are sacrified under ethereal anaesthesia by means of an intracardiacal injection. […] The percent decrease of the hematic cholesterol is calculated by means of the following formula: [formula] Ch=cholesterol

Assay [3] deals with hypertriglyceridemia caused by ethanol. Nature of the assay: Test C: decrease of triglycerides content in the serum of rats based on hypertriglyceridemia caused by ethanol. As to conditions: Table 3, oral, ethanol in drinking water. The text has this: (C) Determination of the decrease of triglycerides content in the serum of rats based on hypertriglyceridemia caused by ethanol. Male Wistar rats weighing 260±20 g, normally fed, are subdivided in experimental groups of 10 animals each: (1) control group, normally fed; (2) diet group, given drinking water containing 10% (v/v) of ethanol since the second day; (3) treated group, given drinking water containing 10% (v/v) of ethanol and treated with the compounds to be tested from the second day. At the beginning of the fourth day, after 18 hours of fast, the animals are sacrificed under ethereal anaesthesia by means of an intracardiacal injection. The dosage of the triglycerides is carried out on the serum using the enzymatic method described by […]. and […]. […] The percent decrease of the triglycerides has been calculated as above.

Like-named read-outs stand apart in the source and are kept apart here.

In the case of `CCC(C)(CCCCCCCCC(C)(CC)COC(=O)c1cccnc1)COC(=O)c1cccnc1` (stereo not drawn) [Table 1 No. 10, 2,11-diethyl-2,11-dimethyl-1,12-dodecanediol dinicotinate], in assay [1] (Table 1, esters), the change in vivo at 50 mg/kg was -66%.
Still for that read-out and setting: the figure for `CCCCC(C)(CCCCCCC(C)(CCCC)COC(=O)c1cccnc1)COC(=O)c1cccnc1` (stereo not drawn) [Table 1 No. 6, 2,9-di-n-butyl-2,9-dimethyl-1,10-decanediol dinicotinate] is -85.6%.
Same read-out and setting: the figure for `CCC(C)(CCCCCCCC(C)(CC)COC(=O)c1cccnc1)COC(=O)c1cccnc1` (stereo not drawn) [Table 1 No. 8, 2,10-diethyl-2,10-dimethyl-1,11-undecanediol dinicotinate] is -98%.
For the compound `CCCCC(C)(CCCCCCC(C)(CCCC)C(=O)O)C(=O)O` (stereo not drawn) [Table 2 No. 11], the change in vivo at 50 mg/kg in assay [1] (Table 2, acids and alcohols) is -65.4%.
Same read-out and setting: the figure for `CCCC(C)(CCCCCCC(C)(CCC)C(=O)O)C(=O)O` (stereo not drawn) [Table 2 No. 9] is -89.5%.
Consider `CC(C)(CO)CCCCCC(C)(C)CO` [Table 2 No. 4, 2,2,8,8-tetramethyl-1,9-nonanediol], for which the “ΔTGhematic (percent decrease of the hematic triglycerides)” value in assay [1] (Table 2, acids and alcohols) was “inactive”.
On to `CCCC(C)(CO)CCCCCCCCC(C)(CO)CCC` (stereo not drawn) [Example 22], for which the change in vivo at 50 mg/kg in assay [1] (Table 2, acids and alcohols) was -45.2%.
In the case of `CC(C)(CCCCCCC(C)(C)COC(=O)c1cccnc1)COC(=O)c1cccnc1` [Example 3, 2,2,9,9-Tetramethyl-1,10-decanediol dinicotinate], the “ED50, Test diet of Tensho” value in assay [2] was found to be 0.0900 mmole/Kg/os/die. In assay [3], the “ED50, Test diet of ethanol” value amounted to 0.0727 mmole/Kg/os/die. The change in vivo at 50 mg/kg in assay [1] (Table 1, esters) was -99%. Also, the “ED50, Test diet of fructose” value in assay [1] turned out to be 0.0034 mmole/Kg/os/die.
On to `CCC(C)(CCCCCCC(C)(CC)C(=O)O)C(=O)O` (stereo not drawn) [Example 7, 2,9-Diethyl-2,9-dimethyl-1,10-decanedioic acid], for which the change in vivo at 50 mg/kg in assay [1] (Table 2, acids and alcohols) was -82.1%.
In the case of `CC(C)(CCCCCC(C)(C)C(=O)O)C(=O)O` [Table 2 No. 3], the “ΔTGhematic (percent decrease of the hematic triglycerides)” value in assay [1] (Table 2, acids and alcohols) was “inactive”.
With `CCC(C)(CO)CCCCCCCC(C)(CC)CO` (stereo not drawn) [Example 16], the change in vivo at 50 mg/kg in assay [1] (Table 2, acids and alcohols) was -90%.
Take `CC(C)(CCCCCCCC(C)(C)COC(=O)c1cccnc1)COC(=O)c1cccnc1` [Example 4, 2,2,10,10-Tetramethyl-1,11-undecanediol dinicotinate]: in assay [2], the “ED50, Test diet of Tensho” value is listed as 0.0891 mmole/Kg/os/die. Further, in assay [3], the “ED50, Test diet of ethanol” value is 0.0718 mmole/Kg/os/die. The change in vivo at 50 mg/kg in assay [1] (Table 1, esters) is -92.5%. The “ED50, Test diet of fructose” value in assay [1] was 0.0029 mmole/Kg/os/die.
Take `CCC(C)(CO)CCCCCCCCC(C)(CC)CO` (stereo not drawn) [Example 20]: the change in vivo at 50 mg/kg in assay [1] (Table 2, acids and alcohols) is -50.1%.
On the same count and under the same terms, the figure for `CC(C)(CO)CCCCCCC(C)(C)CO` [Table 2 No. 6, 2,2,9,9-tetramethyl-1,10-decanediol] is -94%.
`CCCC(C)(CCCCCCC(C)(CCC)COC(=O)c1cccnc1)COC(=O)c1cccnc1` (stereo not drawn) [Table 1 No. 5, 2,9-dimethyl-2,9-di-n-propyl-1,10-decanediol dinicotinate]: in assay [1] (Table 1, esters), the change in vivo at 50 mg/kg is -90%.
Take `CC(C)(CCCCCCCCC(C)(C)C(=O)O)C(=O)O` [Example 17]: the change in vivo at 50 mg/kg in assay [1] (Table 2, acids and alcohols) was -97.5%.
As to `CC(C)(CCCCC(C)(C)COC(=O)c1cccnc1)COC(=O)c1cccnc1` [Example 1, 2,2,7,7-Tetramethyl-1,8-octanediol dinicotinate], the change in vivo at 50 mg/kg in assay [1] (Table 1, esters) is -60%.
Take `CCCCC(C)(CCCCCCCCC(C)(CCCC)C(=O)O)C(=O)O` (stereo not drawn) [Example 23]: in assay [1] (Table 2, acids and alcohols), the change in vivo at 50 mg/kg is -62.4%.
On the same count and under the same terms, the figure for `CCCC(C)(CCCCCCCCC(C)(CCC)C(=O)O)C(=O)O` (stereo not drawn) [Example 21] is -64.3%.
Same read-out and setting: the figure for `CCC(C)(CCCCCCCC(C)(CC)C(=O)O)C(=O)O` (stereo not drawn) [Example 15] is -97%.
In the case of `CC(C)(CCCCCCC(C)(C)C(=O)O)C(=O)O` [Table 2 No. 5], the change in vivo at 50 mg/kg in assay [1] (Table 2, acids and alcohols) is -91.8%.
In the case of `CCC(C)(CCCCCCC(C)(CC)COC(=O)c1cccnc1)COC(=O)c1cccnc1` (stereo not drawn) [Table 1 No. 4, 2,9-diethyl-2,9-dimethyl-1,10-decanediol dinicotinate], the change in vivo at 50 mg/kg in assay [1] (Table 1, esters) was -87%.
With `CC(C)(CCCCC(C)(C)C(=O)O)C(=O)O` [Table 2 No. 1], the “ΔTGhematic (percent decrease of the hematic triglycerides)” value in assay [1] (Table 2, acids and alcohols) is “inactive”.
Take `CCCC(C)(CCCCCCCCC(C)(CCC)COC(=O)c1cccnc1)COC(=O)c1cccnc1` (stereo not drawn) [Table 1 No. 11, 2,11-dimethyl-2,11-di-n-propyl-1,12-dodecanediol dinicotinate]: in assay [1] (Table 1, esters), the change in vivo at 50 mg/kg was -65.8%.
Take `CCCCC(C)(CO)CCCCCCC(C)(CO)CCCC` (stereo not drawn) [Table 2 No. 12, 2,9-di-n-butyl-2,9-dimethyl-1,10-decanediol]: the change in vivo at 50 mg/kg in assay [1] (Table 2, acids and alcohols) was -58.7%.
With `CC(C)(CCCCCC(C)(C)COC(=O)c1cccnc1)COC(=O)c1cccnc1` [Example 2, 2,2,8,8-Tetramethyl-1,9-nonanediol dinicotinate], the change in vivo at 50 mg/kg in assay [1] (Table 1, esters) is -80%.
In the case of `CC(C)(CO)CCCCCCCCC(C)(C)CO` [Example 18], the change in vivo at 50 mg/kg in assay [1] (Table 2, acids and alcohols) was -93.4%.
On the same count and under the same terms, the same measure for `CCCC(C)(CO)CCCCCCC(C)(CO)CCC` (stereo not drawn) [Table 2 No. 10, 2,9-dimethyl-2,9-di-n-propyl-1,10-decanediol]: -88.3%.
Turning to `CC(C)(CCCCCCCC(C)(C)C(=O)O)C(=O)O` [Example 13], the change in vivo at 50 mg/kg in assay [1] (Table 2, acids and alcohols) was -91.8%.
Regarding `CCCCC(C)(CCCCCCCCC(C)(CCCC)COC(=O)c1cccnc1)COC(=O)c1cccnc1` (stereo not drawn) [Table 1 No. 12, 2,11-di-n-butyl-2,11-dimethyl-1,12-dodecanediol dinicotinate], the change in vivo at 50 mg/kg in assay [1] (Table 1, esters) is -59.1%.
Take `CCC(C)(CO)CCCCCCC(C)(CC)CO` (stereo not drawn) [Example 8, 2,9-Diethyl-2,9-dimethyl-1,10-decanediol]: the change in vivo at 50 mg/kg in assay [1] (Table 2, acids and alcohols) was -81.5%.
Take `O=C(O)c1cccnc1` [Nicotinic acid, reference compound]: the “ED50, Test diet of Tensho” value in assay [2] is 0.3020 mmole/Kg/os/die. For the same compound, the “ED50, Test diet of ethanol” value in assay [3] worked out at 0.4800 mmole/Kg/os/die. The “ED50, Test diet of fructose” value in assay [1] stood at 0.4760 mmole/Kg/os/die.
`CCC(C)(CCCCCCCCC(C)(CC)C(=O)O)C(=O)O` (stereo not drawn) [Example 19]: the change in vivo at 50 mg/kg in assay [1] (Table 2, acids and alcohols) was -57.4%.
On to `CCCCC(C)(CO)CCCCCCCCC(C)(CO)CCCC` (stereo not drawn) [Example 24], for which the change in vivo at 50 mg/kg in assay [1] (Table 2, acids and alcohols) was -60.2%.
On the same count and under the same terms, the same measure for `CC(C)(CO)CCCCCCCC(C)(C)CO` [Example 14]: -92%.
Take `CC(C)(CCCCCCCCC(C)(C)COC(=O)c1cccnc1)COC(=O)c1cccnc1` [Example 5, 2,2,11,11-Tetramethyl-1,12-dodecanediol dinicotinate]: the “ED50, Test diet of Tensho” value in assay [2] came out at 0.0880 mmole/Kg/os/die. For the same compound, in assay [3], the “ED50, Test diet of ethanol” value was found to be 0.0707 mmole/Kg/os/die. In addition, in assay [1] (Table 1, esters), the change in vivo at 50 mg/kg is -98%. For the same compound, the “ED50, Test diet of fructose” value in assay [1] was 0.0026 mmole/Kg/os/die.
`CC(C)(CO)CCCCC(C)(C)CO` [Table 2 No. 2, 2,2,7,7-tetramethyl-1,8-octanediol]: the “ΔTGhematic (percent decrease of the hematic triglycerides)” value in assay [1] (Table 2, acids and alcohols) is “inactive”.
